# Laboratory results: PMC12869404 (Virology, 2020)
# Where no end group is shown, it is not given here.
# System: glycan-specific, HIV-1 gp120 NAb, 2G12
# Assay: M13 Binding ELISA, assay control NAb 2G12
# Conditions: control NAb 2G12 coated 1 μg/well; > 2.5E+9 = no binding
row,Substance,Binding Titer (M13/ml) 2G12 [M13/ml]
1,ALCLGPR (disulfide (positions not given here)) [Z13 PhD c7c-1],> 2.5E+9
2,DKWASFD (disulfide (positions not given here)) [2F5 PhD c7c-2],> 2.5E+9
3,DMRSIFHDNPFN [4E10 PhD 12–6],> 2.5E+9
4,ERMLFEW (disulfide (positions not given here)) [4E10 PhD c7c-2],> 2.5E+9
5,GPILANYSDITN [Z13 PhD 12–3],> 2.5E+9
6,GYWSDYWGMTTH [4E10 PhD 12–7],> 2.5E+9
7,HNSQNLDRWAII [2F5 PhD 12–1],> 2.5E+9
8,LPNWFNLSSNLM [4E10 PhD 12–11],> 2.5E+9
9,MELDKWA (disulfide (positions not given here)) [2F5 PhD c7c-1],> 2.5E+9
10,NFWELSKYLHMA [4E10 PhD 12–9],> 2.5E+9
11,NWFDGTTTLWHR [4E10 PhD 12–4],> 2.5E+9
12,NWFDRSHTLFHS [4E10 PhD 12–3],> 2.5E+9
13,NWFNLTQTLMPR [4E10 PhD 12–1],> 2.5E+9
14,PFGFELW (disulfide (positions not given here)) [Z13 PhD c7c-2],> 2.5E+9
15,QHWNYFDLSEQQ [Z13 PhD 12–2],> 2.5E+9
16,QSYNWFDHTRWI [4E10 PhD 12–8],> 2.5E+9
17,SEELDKWYNTLT [2F5 PhD 12–3],> 2.5E+9
18,SEMDDKWAKMKI [2F5 PhD 12–2],> 2.5E+9
19,SHTLNFLDLTST [Z13 PhD 12–1],> 2.5E+9
20,SIFDWPR (disulfide (positions not given here)) [4E10 PhD c7c-1],> 2.5E+9
21,SVSVGMKPSPRP [4E10 PhD 12–2],> 2.5E+9
22,TLDIFRN (disulfide (positions not given here)) [4E10 PhD c7c-3],> 2.5E+9
23,TNFFELTTKLHR [4E10 PhD 12–10],> 2.5E+9
24,YFFDRSS (disulfide) [4E10 PhD c7c-4],> 2.5E+9

# System: HIV-1 PSVs
# Assay: TZMbl neutralization assay of immunized mouse sera
# Conditions: animals immunized with mimotopes alone; TZMbl and PBMC assays, Fig. 5
row,Substance,neutralizing responses of sera
1,GYWSDYWGMTTH [4E10 PhD 12–7],"detectable, low titer neutralizing responses"
2,LPNWFNLSSNLM [4E10 PhD 12–11],"detectable, low titer neutralizing responses"
